Source: patent US20250082781A1, “METHODS OF LOWERING BLOOD GLUCOSE AND TREATING TYPE 2 DIABETES BY ACTIVATION OF PDE4D3” (Salk Institute for Biological Studies, priority 2021, published 2025)

Assays:
blood glucose levels = assay: Blood glucose levels in DIO mice; format: in vivo, mouse; details: for blood glucose levels: 0.5 mg/kg FGF1 s.c.
Experimental: Mice were kept in 12 h light/dark cycle in a temperature-controlled environment. Mice had free access to food and water unless noted otherwise. C57/B6 mice background was used unless noted otherwise. C57BL/6J and ob/ob (000632-B6. Cg-Lepob/J) male mice were obtained from Jackson Laboratory. PDE4D knock-out mice (034588-UCD) were obtained from MMRRC. For diet-induced obesity (DIO) studies, mice were fed a high fat diet (HFD) (60% fat, F3282; Bio-Serv) for minimum of 12 weeks to induce insulin resistance when diet-induced obese model is used. Insulin levels and blood glucose levels were monitored to confirm insulin resistance. To generate adipose-specific FGFR1 deletion, adiponectin-cre mice (B6; FVB-Tg (Adipoq-cre)1Evdr/J; Stock: 010803) were crossed to Fgfr1 flox/flox (B6.129S4-Fgfr1tm5.1Sor/J; Stock: 00767) mice. For AAV mediated expression of target proteins in adipose tissue, 5×10E+11 genomic copies of AAV were injected via tail vein or retro-orbital route.
Recombinant FGF1 (rFGF1) was dissolved in phosphate-buffered saline (PBS) at a concentration of 0.2 mg/ml and was injected subcutaneously at a 0.5 mg kg^−1 dose. Blood glucose was monitored at indicated time points after injection. For initial measurements (2-4 h) food was removed after injection to exclude any indirect effects stemming from anorexigenic effects of FGF1. PDE4 inhibitor roflumilast stock in DMSO was diluted at 1 mg/ml in 30% captisol, pH 10 and delivered to mice thorough oral gavage at 5 mg kg^−1 dose. PDE3 inhibitor cilostamide stock in DMSO was diluted at 2 mg/ml in 30% captisol and delivered through intraperitoneal injection at 10 mg kg^−1 dose.

[1] = system: human SVF-derived adipocytes; assay: In vitro lipolysis assay (FFA release), human SVF-derived adipocytes; format: cell-based
Experimental: Differentiation of pre-adipocytes were based on previously published methods (Bunnell et al., 2008). Briefly, 3T3-L1 pre-adipocytes were grown to full confluence in DMEM, 10% FBS (GemCell, 100-500), 10 mM HEPES and antibiotic-antimycotic (full growth media). 2 days later, differentiation was induced by replacing the media with 1 μM dexamethasone, 1 μM rosiglitazone, 500 μM IBMX and 5 μg/ml insulin in full growth media 2 days later after reaching full confluence. Two days later media was replaced by differentiation induction media with 1 μM rosiglitazone and 5 μg/ml insulin for 4 days with media change after 2 days. Cells were kept in maintenance medium (full growth media with 5 μg/ml insulin) for 4 more days for full differentiation. For differentiation of mouse SVF derived adipocytes, the protocol was same except DMEM/F12 (10565018, ThermoFisher) was used as base media and initial differentiation induction media was kept for 3 days. For differentiation of human subcutaneous adipocytes, protocol and media from the manufacturer (C-12735, C-39437, Promocell) were used. […]
For in vitro lipolysis assay, cells were washed with PBS and media were changed to full growth media 1 day before experiment. […] FFAs were measured in the media using a commercial kit (Wako-NEFAHR2) and normalized to protein concentration. […] FFAs were measured and normalized by the explant weights.

PDE4D = assay: Western blot of PDE4D phosphorylation in gWAT after injection; format: in vivo, mouse; details: 30 minutes after FGF1 injection 0.5 mg/kg
Experimental: Tissues were lysed in cold lysis buffer (50 mM Tris, pH 7.5, 150 mM NaCl, 1% NP40, 0.5% NaDoc, 0.1% SDS, 5% glycerol, 1 mM EDTA, protease and phosphatase inhibitors (complete and PhosSTOP (Roche)) by homogenization by bead-beater for 30 s. Samples were cleared for 10 min at 18,000 g at 4° C. and the middle clear phase was transferred to new tubes. A second 30 min centrifugation was performed and the middle clear phase was transferred to new tubes. Five ul protein extract was used for BCA assay to determine protein concentration. Samples were boiled in Laemmli buffer. SDS-PAGE and blotting were performed using gradient gels and Trans-Blot Turbo Transfer System (Bio-Rad). Antibodies used were PDE4D (12918-1-AP, Proteintech), pHSL-660 (4126S, Cell signaling), HSL (4107S, Cell Signaling), tubulin (CP06, Millipore Sigma), and GFP (A01388, GenScript). PDE4D3-pS44 phospho-specific antibody was generated using PDE4D3-S44 FRRHpSWISFDVDNGTSAGR peptide (SEQ ID NO: 20) (Mackenzie et al., 2002) by Pocono Rabbit Farm, using 70-day rabbit antibody production protocol and purified via affinity purification. Primary antibodies were incubated for 2 h at room temperature (RT) or overnight (ON) at 4° C. Blots were developed using SuperSignal West Pico PLUS Chemiluminescent Substrate (ThermoFisher Scientific) and imaged with BioRad GelDoc system.

## FGF1: Recombinant fibroblast growth factor 1 protein, dissolved in PBS, injected subcutaneously
Blood glucose levels; DIO adR1KO mice
  blood glucose levels: failed to affect adR1KO mice
Blood glucose levels; DIO mice, FGF1 0.5 mg/kg, cilostamide 10 mg/kg
  ability of FGF1 to modulate glucose levels under inhibition of PDE3: failed to affect the ability of FGF1 to modulate glucose levels
Blood glucose levels; DIO wild type mice (adR1WT)
  blood glucose levels: rapidly decreased blood glucose levels
Blood glucose levels; HFD-fed PDE4D KO mice, FGF1 0.5 mg/kg
  blood glucose: failed to lower blood glucose
Blood glucose levels; PDE4D KO DIO mice 4 weeks after adAAV, FGF1 0.5 mg/kg
  FGF1 blood glucose lowering with adAAV-driven expression of PDE4D3 in adipose tissue: restored
Blood glucose levels; ad lib fed DIO mice, FGF1 0.5 mg/kg, roflumilast 5 mg/kg
  ability of FGF1 to reduce blood glucose levels with roflumilast pretreatment: lost
[1]; FGF1 100 ng/ml with roflumilast 2 μM
  anti-lipolytic activity of FGF1 with selective inhibitors of PDE4: blocked by selective inhibitors of PDE4
[1]; FGF1 100 ng/ml, 10 min before ISO 1 nM
  basal and isoproterenol-induced lipolysis: acutely suppressed basal and isoproterenol-induced lipolysis
PDE4D
  PDE4D phosphorylation in gWAT: increase in PDE4D phosphorylation
